Test results published in a compilation of properties of binary mixtures (doi:10.1007/s10953-016-0465-y).

Test: xn = mol fraction of the nth substance listed
Settings: 101 kPa

COCCO + CCOS(=O)(=O)[O-].CC[n+]1ccn(C)c1
x2 = 0
Settings	speed of sound [m/s]
298.15 K	1344
308.15 K	1309.2
318.15 K	1274.5
328.15 K	1240.1

CCOS(=O)(=O)[O-].CC[n+]1ccn(C)c1 + COCCO
speed of sound [m/s]
Settings	298.15 K	308.15 K	318.15 K	328.15 K
x1 = 0.049	1381	–	1316.1	1282.9
x1 = 0.0819	1403	–	1340.4	1308
x1 = 0.1453	1441	1412	1381.9	–
x1 = 0.1765	1457.4	1429	1399.5	1369.2
x1 = 0.2557	1494.5	–	1438.7	1410
x1 = 0.3386	–	1500.6	1472.9	–
x1 = 0.4472	–	1537.2	1510.3	1484.3
x1 = 0.5453	1592.2	1565.7	1539.3	1514.2
x1 = 0.6466	1617.7	–	1565.9	1541.3
x1 = 0.7562	1641.6	–	1591.4	1567
x1 = 0.8206	1654	1629.2	1604.6	1580.4
x1 = 0.8868	–	1641	–	–
x1 = 0.951	1674.9	1650.6	1626.6	1602.8
x1 = 1	1680.8	1656.4	–	1608.9
